Assay results reported in patent US20260216347A1, “Substituted Imidazo-Based Compounds as Ligand Directed Degraders of IRAK3” (Celgene Corporation, priority 2022, published 2026).

The molecules below were run against T1, IRAK3 (Homo sapiens, UniProt Q9Y616) (assay: IRAK3 biochemical binding assay (LanthaScreen Eu Kinase Binding, TR-FRET)).
T1 construct: IRAK Endogenous HTRF Degradation Assay; endogenous in cells
T1 sequence (Q9Y616 1-596): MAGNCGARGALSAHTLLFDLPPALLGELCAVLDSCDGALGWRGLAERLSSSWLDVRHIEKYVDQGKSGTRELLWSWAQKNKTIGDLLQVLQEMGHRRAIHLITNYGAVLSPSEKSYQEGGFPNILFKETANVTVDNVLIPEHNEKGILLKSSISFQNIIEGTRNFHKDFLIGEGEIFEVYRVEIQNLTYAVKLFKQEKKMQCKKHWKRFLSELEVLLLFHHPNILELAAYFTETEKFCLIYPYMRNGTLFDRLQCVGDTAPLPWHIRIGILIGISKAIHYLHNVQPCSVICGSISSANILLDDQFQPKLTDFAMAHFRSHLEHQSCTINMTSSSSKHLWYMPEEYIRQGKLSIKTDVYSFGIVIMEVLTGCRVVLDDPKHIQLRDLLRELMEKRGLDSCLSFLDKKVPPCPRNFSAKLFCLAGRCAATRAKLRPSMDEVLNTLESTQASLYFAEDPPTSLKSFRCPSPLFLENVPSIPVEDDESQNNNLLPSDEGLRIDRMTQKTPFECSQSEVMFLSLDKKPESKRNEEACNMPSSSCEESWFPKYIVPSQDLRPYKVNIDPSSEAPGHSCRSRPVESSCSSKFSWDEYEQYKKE
Method in brief: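 TR-FRET tracer-displacement binding with 10 nM IRAK3, 2 nM Eu-anti-GST antibody and 10 nM tracer in 50 mM HEPES pH 7.4, MgCl2, 1 mM EGTA, 0.01% Brij-35. Compounds in 3-fold dilutions, 1 h at room temperature. 665/615 nm ratio gave % inhibition; IC50 and Hill slope from dose-response fit.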

SMILES | IC50 [nM]
O=C1CCC(c2ccc(N3CCN(CCN4CCC(n5cc(Nc6ncc(-c7ccc(F)cc7)n7ccnc67)cn5)CC4)CC3)cc2)C(=O)N1 (stereo not drawn) [Compound 74, 3-(4-(4-(2-(4-(4-((5-(4-fluorophenyl)imidazo [1,2-a]pyrazin-8-yl)amino)-1H-pyrazol-1-yl)piperidin-1-yl)ethyl)piperazin-1-yl)phenyl) piperidine-2,6-dione] | 5.6
O=C1CCC(c2ccc(N3CCN(CCN4CCC(n5cc(Nc6ncc(-c7ccccc7F)n7ccnc67)cn5)CC4)CC3)cc2)C(=O)N1 (stereo not drawn) [Compound 75, 3-(4-(4-(2-(4-(4-((5-(2-fluorophenyl)imidazo [1,2-a]pyrazin-8-yl)amino)-1H-pyrazol-1-yl)piperidin-1-yl)ethyl)piperazin-1-yl)phenyl) piperidine-2,6-dione] | 14
O=C1CCC(c2ccc(N3CCN(CCN4CCC(n5cc(Nc6ncc(-c7cccc(F)c7)n7ccnc67)cn5)CC4)CC3)cc2)C(=O)N1 (stereo not drawn) [Compound 80, 3-(4-(4-(2-(4-(4-((5-(3-fluorophenyl)imidazo [1,2-a]pyrazin-8-yl)amino)-1H-pyrazol-1-yl)piperidin-1-yl)ethyl)piperazin-1-yl)phenyl) piperidine-2,6-dione] | 140
Cc1cc(-c2cnc(Nc3cnn([C@H]4CC[C@H](CCN5CCN(c6ccc([C@@]7(C)CCC(=O)NC7=O)cc6)CC5)CC4)c3)c3nccn23)c(F)cc1F [Compound 81, (R)-3-(4-(4-(2-((trans)-4-(4-((5-(2,4-difluoro-5-methylphenyl)imidazo[1,2-a]pyrazin-8-yl)amino)-1H-pyrazol-1-yl)cyclohexyl)ethyl)piperazin-1-yl)phenyl)-3-methylpiperidine-2,6-dione] | 10
Cc1cc(-c2cnc(Nc3cnn([C@H]4CC[C@H](CCN5CCN(c6ccc([C@]7(C)CCC(=O)NC7=O)cc6)CC5)CC4)c3)c3nccn23)c(F)cc1F [Compound 82, (S)-3-(4-(4-(2-((trans)-4-(4-((5-(2,4-difluoro-5-methylphenyl)imidazo[1,2-a]pyrazin-8-yl)amino)-1H-pyrazol-1-yl)cyclohexyl)ethyl)piperazin-1-yl)phenyl)-3-methylpiperidine-2,6-dione] | 17

Now from value to molecule:

IC50 [nM] | SMILES
0.65 | Cc1cc(-c2cnc(Nc3cnn([C@H]4CCN(CCN5CCN(c6ccc(C7CCC(=O)NC7=O)cc6)C[C@H]5C)[C@@H](C)C4)c3)c3nccn23)c(F)cc1F (stereo partly drawn) [Compound 35, 3-(4-((R)-4-(2-((2S,4S)-4-(4-((5-(2,4-difluoro-5-methylphenyl)imdazo [1,2-a]pyrazin-8-yl)amino)-1H-pyrazol-1-yl)-2-methylpiperidin-1-yl)ethyl)-3-methylpiperazin-1-yl)phenyl) piperidine-2,6-dione]
1.2 | Cc1cc(-c2cnc(Nc3cnn([C@H]4CCN(CCN5CCN(c6ccc(C7CCC(=O)NC7=O)cc6)CC5)C[C@@H]4F)c3)c3nccn23)c(F)cc1F (stereo partly drawn) [Compound 72, 3-(4-(4-(2-((3S,4S)-4-(4-((5-(2,4-difluoro-5-methylphenyl)imdazo [1,2-a]pyrazin-8-yl)amino)-1H-pyrazol-1-yl)-3-fluoropiperidin-1-yl)ethyl)piperazin-1-yl)phenyl) piperidine-2,6-dione]
1.7 | Cc1cc(-c2cnc(Nc3cnn(C4CCN(CCN5CCN(c6ccc([C@]7(C)CCC(=O)NC7=O)cc6)CC5)CC4)c3)c3nccn23)c(F)cc1F [Compound 76, (S)-3-(4-(4-(2-(4-(4-((5-(2,4-difluoro-5-methylphenyl)imdazo [1,2-a]pyrazin-8-yl)amino)-1H-pyrazol-1-yl)piperidin-1-yl)ethyl)piperazin-1-yl)phenyl)-3-methylpiperidine-2,6-dione]
2 | Cc1cc(-c2cnc(Nc3cnn(C4CCN(CCN5CCN(c6ccc([C@@]7(C)CCC(=O)NC7=O)cc6)CC5)CC4)c3)c3nccn23)c(F)cc1F [Compound 77, (R)-3-(4-(4-(2-(4-(4-((5-(2,4-difluoro-5-methylphenyl)imdazo [1,2-a]pyrazin-8-yl)amino)-1H-pyrazol-1-yl)piperidin-1-yl)ethyl)piperazin-1-yl)phenyl)-3-methylpiperidine-2,6-dione]
